Results: patent US4120951A, “Polypeptide hormones of the thymus” (Sloan-Kettering Institute for Cancer Research, priority 1977, dated 1978)
Ends that are not written are not given here.

Tests used:
mouse bone marrow cells = experiment: Cytotoxic inhibition test for induction of TL and Thy-1 antigens; format: cell-based; settings: for absorption of antibodies directed against TL or Thy-1 by treated cells: unfractionated bone marrow cells, 100 ng/ml, 18 hours
Description: Thymin I and Thymin II were isolated from bovine thymus as described. Each was dissolved in phosphate buffered saline (containing 1 mg/ml of bovine serum albumen to minimize adsorbtive losses), distributed into 2 μg lots and lyophilized. Each polypeptide was reconstituted in tissue culture medium at the desired concentrations just prior to use.
(§1) Bone marrow cells were obtained from the femoral marrow. Both spleen and marrow cells were teased into single cell suspensions and washed three times in RPMI 1640 medium supplemented with 10 mM Hepes and 100 U/ml of penicillin and 100 μg/ml of streptomycin. The cells were then suspended in the same medium with 10% bovine serum at a concentration of 5.0×10^6 cells/ml. One milliliter of this suspension was incubated with an appropriate dilution of thymin in 16 mm plastic petrie dishes in a humidified atmosphere containing 5% CO2 in air. At the end of the incubation the cells were washed twice and held at 4° C. at a concentration of 5.0×10^6 cells/ml in culture medium until tested for the presence of TL or Thy-1(0).
ASL-1, a TL positive, Thy 1-2 (0-C3H) positive lymphoma of A strain mice was used as the target cell in all titrations of the antisera used in these experiments, and in the cytotoxic inhibition test to be described below. The lymophoma was maintained by weekly intraperitoneal passage in A/J mice. Lymphoma cells were labelled with Cr^51 and used as target cells in the cytotoxic inhibition test.
Antisera to either TL or Thy-1 (0) were titered to determine the quantity of antibody which was required to kill 50% of the target cells in a standard suspension. The appropriate amount of antiserum was added to each well of a microtiter plate with various dilutions of the cells being tested for their antigen content. The total volume was 0.15 ml. Cells expressing the antigen against which the antiserum was directed absorbed varying amounts of the antibody, and rendered less available to react with the Cr^51 labelled target cells which were added subsequently. The concentration of antibody used was extremely critical to the sensitivity of the test. The antisera to TL or Thy-1 (0) and the cells being tested for their antigen content were incubated together at 4° C. for 90 minutes. After this incubation 50,000 target cells in a volume of […] were added and the incubation continued in the cold for an additional 30 minutes to permit the sensitization of the target cells by the remaining unabsorbed antibody. The plates were then centrifuged at 1,500 rpm for 10 minutes and the supernatant fluid removed. The pelleted cells were resuspended in 0.1 ml or RPMI 1640, containing 4% fresh rabbit serum as a source of complement, and incubated for 45 minutes at 37° C. The cells were then repelleted by centrifugation and a 0.075 ml aliquot of the supernatant fluid was counted in an automatic gamma spectrometer to determine the amount of Cr^51 released from the target cells. All assays were performed in duplicate and the results were expressed by calculating the number of cells required to reduce the relative cytotoxic index (RCI) to 0.5. The RCI was calculated as follows: [formula]

[1] = test system: neuromuscular transmission; experiment: Electromyographic assay of neuromuscular transmission in mice after intraperitoneal injection; format: in vivo; settings: for activity of the isolated fraction in producing neuromuscular block: QAE-Sephadex fractions, FIG. 3; for therapeutically effective amount: at least about; for dose producing a statistically significant (P < 0.001) decrement in the electromyographic response: 5 days after dose, supramaximal nerve stimulation 50 impulses per second; for mean decrement: height of tenth muscle action potential as % of the first: 5 days after doses above threshold, controls 94 ± 2%; for dose range at which active: test not stated
Description: To determine the neuromuscular action of Thymin I and Thymin II, the electromyographic response of mice 5 days after various doses of Thymin I or Thymin II is summarized in FIG. 4. Bovine serum albumin (0.5 mg/ml, 0.9% saline) was used as a protein stabilizer and controls were injected with the solvent alone.
In 15 control mice sampled at 75 sites the height of the tenth muscle action potential was 94 ± 2% (mean ± s.e.m.) of the height of the first. The mean values and s.e.m. (vertical bars) are shown for groups of 4-10 mice given various doses of Thymin I(o) and Thymin II (.quadrature.). Statistical significances of differences from the controls were calculated by Student's t-test and are shown by solid symbols (P < 0.001 ), half solid symbols (0.05 > P < 0.001) and open symbols (P > 0.05).
Mice were given 100 ng of Thymin I or solvent and five mice from each group were tested at various times. With supramaximal nerve stimulation at 50 impulses per second the height of the tenth muscle action potential was expressed as a percentage of the first. This change was calculated for five points in each of five to ten mice from each group. For each time point the change in Thymin-treated mice was expressed as a percentage of the change in solvent-treated control mice and the statistical significance of the difference was assessed by Student's t-test. A statistically significant (P < 0.001) abnormality in the electromyogram was first evident at 18 hours, was maximal at 24 hours and persisted through 5 days.
To make the determinations described in FIGS. 4 and 5, extracts were injected into test animals and neuromuscular transmission was studied after an interval of one to five days. Initial 100 g guinea pigs were injected intraperitoneally; neuromuscular transmission was studied in vitro with a preparation of the phrenic nerve and hemidiaphragm. Subsequently, 200 g rats were used; fractions were injected subcutaneously and neuromuscular transmission was assessed electromyographically. […] Female Swiss-Webster mice weighing 25-35 g were injected intraperitoneally, groups of five to ten mice being used to test each fraction. The animals were anesthetized with urethane and electromyography was performed as described. The muscle action potentials were recorded in each mouse following supramaximal nerve stimulation with 10 impulses at a rate of 50 per second. Five sites were sampled in each mouse and for each group of mice the mean standard deviation and s.e.m. were calculated for the change in the height of the muscle action, potential being expressed as a percentage of the height of the first impulse.
The statistical significance of differences found were assessed by student's t-test.

spleen cells = experiment: Direct cytotoxic test (trypan blue) for TL induction, spleen cells; format: cell-based, mouse; settings: 20 ng/ml, 2 hours, least dense BSA gradient fraction
Description: as §1
(§2) Bone marrow and spleen cells were obtained by flotation in BSA gradients similar to those used by Komuro and Boyse (Lancet, 10, 39, 1964). These cells were tested for their susceptibility to anti TL and Thy-1(0) antibodies in a direct cytotoxicity test, using the uptake of trypan blue as a measure of cell death.
(§3) The actual number of cells induced could not be determined in the cytotoxic inhibition assay since this test is a measure of the total antigen present in the culture. […] However, unless sufficient numbers of such cells are present they cannot be detected because of a substantial background usually found in such tests. […]

bone marrow cells = experiment: Direct cytotoxic test (trypan blue) for TL induction, bone marrow cells; format: cell-based, mouse
Description: as §1, §2, §3

[2] = single injection of 100 ng, mice

## SQFLEDPSVLTKEKLKSELVANNVTLPAGEQRKDVYVQLYLQTLTAVKR [Thymin II, H2 n--ser--gln--phe--leu--glu--asp--pro--ser--val--leu--thr--lys--glu--lys--leu--lys--ser--glu--leu--val--ala--asn--asn--val--thr--leu--pro--ala--gly--glu--gln--arg--lys--asp--val--tyr--val--gln--leu--tyr--leu--gln--thr--leu--thr--ala--val--lys--arg--cooh]
Mouse bone marrow cells
  concentration of maximal activity: 0.2-2 nanogram per mll
  lowest concentration at which active: 20 picogram per mll
  absorption of antibodies directed against TL or Thy-1 by treated cells: absorbed antibodies
[1]
  activity of the isolated fraction in producing neuromuscular block: active
  therapeutically effective amount: at least 1.3 μg/kg of body weight
  dose range at which active: about 0.1 mg/kg of body weight
[1]; mice
  dose producing a statistically significant (P < 0.001) decrement in the electromyographic response: above 32 ng/mouse
  mean decrement: height of tenth muscle action potential as % of the first: 82%

## GQFLEDPSVLTKEKLKSELVANNVTLPAGEQRKDVYVQLYLQHLTAVKR [Thymin I, H2 n--gly--gln--phe--leu--glu--asp--pro--ser--val--leu--thr--lys--glu--lys--leu--lys--ser--glu--leu--val--ala--asn--asn--val--thr--leu--pro--ala--gly--glu--gln--arg--lys--asp--val--tyr--val--gln--leu--tyr--leu--gln--his--leu--thr--ala--val--lys--arg--cooh]
Spleen cells
  spleen cells killed by anti TL antiserum plus complement: 18%
Mouse bone marrow cells
  concentration of maximal activity: 0.2-2 nanogram per mll
  lowest concentration at which active: 20 picogram per mll
  absorption of antibodies directed against TL or Thy-1 by treated cells: absorbed antibodies
Mouse bone marrow cells; bone marrow cells
  concentration giving maximal induction of TL and Thy-1 antigens: 2 ng/mL
  lowest concentration producing a measurable response (induction of TL and Thy-1 antigens): 20 pg/mL
Mouse bone marrow cells; compared with Thymin II
  relative potency in inducing TL and Thy-1 antigens: slightly more potent
[1]
  activity of the isolated fraction in producing neuromuscular block: active
  therapeutically effective amount: at least 0.20 μg/kg of body weight
  dose range at which active: about 0.1 mg/kg of body weight
[1]; compared with Thymin II
  relative activity on neuromuscular transmission: slightly more active
[1]; mice
  dose producing a statistically significant (P < 0.001) decrement in the electromyographic response: above 4 ng/mouse
  mean decrement: height of tenth muscle action potential as % of the first: 84%
[1]; [2]
  time at which the electromyogram abnormality was maximal: 24 h
  time through which the electromyogram abnormality persisted: 5 days
[1]; single injection of 100 ng, mice, P < 0.001
  time at which the electromyogram abnormality was first evident: 18 h
Bone marrow cells; 20 ng/ml, 2 hours, least dense BSA gradient fraction
  bone marrow cells killed by anti TL antiserum plus complement: 21%
Bone marrow cells; other experiments, tissue not stated
  highest value of cells killed by anti TL antiserum plus complement: ≤ 28%
